Experimental data as given in paper PMC7238120, “Strong and Selective Inhibitory Effects of the Biflavonoid Selamariscina A against CYP2C8 and CYP2C9 Enzyme Activities in Human Liver Microsomes” (Pharmaceutics, 2020).

Legend:
Assay type in all cases: in vitro ADME
CYP2C9 = CYP2C9 (Homo sapiens, UniProt P11712); test: Time-dependent inhibition (IC50 shift) of CYP2C9, diclofenac, human liver microsomes; parameters: incubation mixtures containing pooled human liver microsomes (HLMs, XTreme 200, XenoTech); tissue XenoTech XTreme 200; host or cells: pooled human liver microsomes
Protocol: The time-dependent inhibition of selamariscina A against CYP2C8 and CYP2C9 enzymes was evaluated using an IC50 shift method. Selamariscina A was pre-incubated at six concentrations (0, 0.002, 0.005, 0.02, 0.05, and 0.2 μM) with HLMs in the presence of an NDAPH generation system for 30 min at 37 °C. The reaction was initiated by adding 1 μM amodiaquine or 10 μM diclofenac and further incubated for 10 min. Incubation was terminated by adding 50 μL of ice-cold acetonitrile containing 7 nM trimipramine. After centrifugation, aliquots of supernatants were analyzed by LC–MS/MS.
All metabolites and the IS were separated on a Kinetex XB-C18 column (100 × 2.10 mm, 2.6 μm, 100 Å; Phenomenex, Torrance, CA, USA) and analyzed using a Shimadzu LCMS 8060 triple-quadrupole mass spectrometer coupled with a Nexera X2 ultra high-performance liquid chromatography system (Shimadzu, Kyoto, Japan) equipped with an electrospray ionization interface. The mobile phase consisted of 0.1% formic acid in water (A) and 0.1% formic acid in acetonitrile (B). The elution condition was set as 8% B (0–0.5 min), 8%→60% B (0.5–5 min), 60% B (5–6 min), 60%→8% B (6–6.1 min) and 8% B (6.1–9 min) for the analysis of metabolites of P450 probe substrates and set as 0%→40% B (0–1 min), 40%→50% B (1–5 min), 50%→0% B (5–5.1 min), and 0% B (5.1–8 min) for the analysis of metabolites of UGT probe substrates. The flow rate was 0.2 mL/min. Electrospray ionization was performed in positive-ion mode at 4000 V or in negative-ion mode at −3500 V. The optimum operating conditions were determined as follows: vaporizer temperature, 300 °C; capillary temperature, 350 °C; collision gas (argon) pressure, 1.5 mTorr. Quantitation was conducted in selected reaction monitoring (SRM) modes with the precursor-to-product ion transition for each metabolite (Table 1 and Table 2).
We analyzed the data with Shimadzu LabSolution LC–MS software. The IC50 values were calculated by WinNonlin software (Pharsight, Mountain View, CA, USA). […]

UGT1A1 = target: T1, UGT1A1 (Homo sapiens, UniProt P22309); test: Inhibition of UGT1A1 (SN-38 glucuronidation) in human liver microsomes; parameters: tissue XenoTech XTreme 200; host or cells: pooled human liver microsomes; details: substrate SN-38; HLMs 0.25 mg/mL; average ± standard error
T1 sequence (P22309 26-533): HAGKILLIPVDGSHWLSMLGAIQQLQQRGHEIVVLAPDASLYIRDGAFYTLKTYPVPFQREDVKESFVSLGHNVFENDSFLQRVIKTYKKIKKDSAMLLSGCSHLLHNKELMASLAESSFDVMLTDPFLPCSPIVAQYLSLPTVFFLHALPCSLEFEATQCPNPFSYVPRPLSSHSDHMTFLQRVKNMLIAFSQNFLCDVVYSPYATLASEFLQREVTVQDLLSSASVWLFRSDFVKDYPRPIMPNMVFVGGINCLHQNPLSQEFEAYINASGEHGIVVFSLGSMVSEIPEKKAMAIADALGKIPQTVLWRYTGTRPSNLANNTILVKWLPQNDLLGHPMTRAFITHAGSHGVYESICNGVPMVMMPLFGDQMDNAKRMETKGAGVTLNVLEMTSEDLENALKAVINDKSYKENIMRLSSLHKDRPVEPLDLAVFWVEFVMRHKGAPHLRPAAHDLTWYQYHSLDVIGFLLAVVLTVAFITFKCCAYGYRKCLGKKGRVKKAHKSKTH
Protocol: (§1) The ability of selamariscina A to inhibit the metabolism of six UGT enzyme probe substrates was evaluated using previously developed methods with minor modifications. The microsomal incubation was performed by dividing the non-interactive substrate cocktail sets (set A included SN-38 for UGT1A1, CDCA for UGT1A3 and TFP for UGT1A4 while set B included N-SER for UGT1A6, MPA for UGT1A9 and NX for UGT2B7) (Table 2). In brief, HLMs (0.25 mg/mL) were activated by incubation in the presence of alamethicin (25 µg/mL) for 15 min on ice. After the addition of UGT probe substrates and inhibitor (0, 0.5, 2, 5, 20 and 50 μM), the incubation mixtures were pre-incubated at 37 °C for 5 min. […] After centrifugation at 18,000 g (5 min, 4 °C), aliquots of supernatants were analyzed by LC–MS/MS. […]
(§2) All metabolites and the IS were separated on a Kinetex XB-C18 column (100 × 2.10 mm, 2.6 μm, 100 Å; Phenomenex, Torrance, CA, USA) and analyzed using a Shimadzu LCMS 8060 triple-quadrupole mass spectrometer coupled with a Nexera X2 ultra high-performance liquid chromatography system (Shimadzu, Kyoto, Japan) equipped with an electrospray ionization interface. […] Quantitation was conducted in selected reaction monitoring (SRM) modes with the precursor-to-product ion transition for each metabolite (Table 1 and Table 2).
(§3) We analyzed the data with Shimadzu LabSolution LC–MS software. […]

UGT1A4 = target: T2, UGT1A4 (Homo sapiens, UniProt P22310); test: Inhibition of UGT1A4 (trifluoperazine glucuronidation) in human liver microsomes; details: substrate trifluoperazine; HLMs; average ± standard error
T2 construct: tissue XenoTech XTreme 200; host or cells: pooled human liver microsomes
Protocol: as §1, §2, §3

Chain of CYP2C9 (P11712 whole entry): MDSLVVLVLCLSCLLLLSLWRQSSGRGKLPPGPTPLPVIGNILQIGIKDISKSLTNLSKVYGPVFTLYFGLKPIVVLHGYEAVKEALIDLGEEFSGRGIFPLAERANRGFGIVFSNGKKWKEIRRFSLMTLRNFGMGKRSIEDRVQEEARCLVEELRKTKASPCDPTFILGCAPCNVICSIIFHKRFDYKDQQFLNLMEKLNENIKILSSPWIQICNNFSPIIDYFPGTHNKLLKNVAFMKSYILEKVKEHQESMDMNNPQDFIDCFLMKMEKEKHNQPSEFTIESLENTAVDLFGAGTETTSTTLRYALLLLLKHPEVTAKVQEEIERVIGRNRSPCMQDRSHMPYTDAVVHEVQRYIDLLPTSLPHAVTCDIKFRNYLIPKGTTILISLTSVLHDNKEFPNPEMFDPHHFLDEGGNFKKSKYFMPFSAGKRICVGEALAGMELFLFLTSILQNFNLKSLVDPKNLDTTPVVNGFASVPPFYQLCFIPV
T2 sequence (P22310 29-534): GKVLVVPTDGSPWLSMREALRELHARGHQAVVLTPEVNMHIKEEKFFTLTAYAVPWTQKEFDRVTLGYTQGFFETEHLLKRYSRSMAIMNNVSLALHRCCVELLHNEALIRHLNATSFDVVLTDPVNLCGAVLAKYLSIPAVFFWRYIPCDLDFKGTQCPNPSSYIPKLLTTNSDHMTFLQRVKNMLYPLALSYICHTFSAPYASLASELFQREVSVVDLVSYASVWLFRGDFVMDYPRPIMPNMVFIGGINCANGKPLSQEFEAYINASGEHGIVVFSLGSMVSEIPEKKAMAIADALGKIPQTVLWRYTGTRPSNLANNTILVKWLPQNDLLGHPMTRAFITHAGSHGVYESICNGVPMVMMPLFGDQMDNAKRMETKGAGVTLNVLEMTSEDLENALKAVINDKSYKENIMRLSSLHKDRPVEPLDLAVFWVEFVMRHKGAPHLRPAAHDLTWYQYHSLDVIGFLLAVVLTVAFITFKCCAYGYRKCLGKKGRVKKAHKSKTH

| SMILES | IC50 (CYP2C9; 30 min pre-incubation at 37 °C with NADPH generation system, read-out: IC50, CYP2C9 diclofenac, HLMs pre-incubated with NADPH generation system) | Time-dependent inhibition of CYP2C9 (CYP2C9; IC50 shift method) | IC50 at 10 min (CYP2C9; human, human liver microsomes, probe diclofenac (10 μM), no NADPH pre-incubation, read-out: IC50, CYP2C9 diclofenac, untreated HLMs) | IC50 (UGT1A1) | IC50 (UGT1A4) |
| --- | --- | --- | --- | --- | --- |
| O=C1CC(c2cc(-c3c(O)ccc4c(=O)cc(-c5ccc(O)cc5)oc34)c(O)cc2O)Oc2cc(O)cc(O)c21 (stereo not drawn) [selamariscina A] | 92 nM | not a time-dependent inhibitor | 54 nM | 1700 ± 500 nM | 7700 ± 1900 nM |
| O=c1cc(-c2ccc(O)c(-c3c(O)cc(O)c4c(=O)cc(-c5ccc(O)cc5)oc34)c2)oc2cc(O)cc(O)c12 [amentoflavone] |  |  |  | 1700 nM |  |
